Literature values in patent US6239177A, “Tranilast-containing preparation for external application and method of producing the same” (Lead Chemical Co., Ltd., priority 1996, dated 2001).
Where two headings read alike, the source gives them in different places.

How the values were obtained:
[1] = tested on: carrageenan-induced granulation tissue; details: for drug concentration in the skin tissue: one hour after final administration, 60 min
[2] = tested on: keloid and hypertrophic scar; details: Ichikawa 1992; Suzawa 1992

- solubility in dimethyl formamide, pyridine, dioxane, and acetone (dimethyl formamide, pyridine, dioxane, acetone): soluble
- solubility in a kind of fatty acid and its ester, animal and vegetable oils and fats, terpene compounds, and alcohols (fatty acids/esters, oils and fats, terpenes, alcohols): can be solved to some extent
- solubility in methanol, ethanol, ethyl acetate (methanol, ethanol, ethyl acetate): hardly soluble
- solubility in water: extremely sparingly soluble
- solubility in water (listed as Tranilast): sparingly soluble
- drug concentration in the skin tissue ([1]; oral 50 mg/kg for consecutive 14 days): 4.2 ± 0.4 µg/g
- drug concentration in the skin tissue ([1]; oral 100 mg/kg for consecutive 14 days): 10.3 ± 0.9 µg/g
- drug concentration in the skin tissue ([1]; oral 200 mg/kg for consecutive 14 days): 23.17 ± 1.7 µg/g
SMILES: COc1ccc(C=CC(=O)Nc2ccccc2C(=O)O)cc1OC [tranilast, N-(3,4-dimethoxycinnamoyl)-anthranilic acid]
- inhibitory effect (carrageenan-induced granulation tissue) ([1]; oral 50, 100, and 200 mg/kg for consecutive 14 days): dose-dependent inhibitory effect was observed
- pharmaceutical effect on keloid and hypertrophic scar [2]: excellent pharmaceutical effect
